The experiment has as its system Haemaphysalis longicornis. The experiment is described as follows: Test Example 3: insecticidal test on Haemaphysalis longicornis by treating glass surface. It is filed as in vivo. The settings on record: 48 h, read-out: Mortality Rate (%). As for the experimental part:
Insecticidal Test on Haemaphysalis longicornis by Treating Glass Surface
Acetone solutions were each prepared for the present hydrazide compounds and the present neonicotinoid compounds. To inner walls of a glass screw tube and lid (NO. 5, manufactured by Maruemu Corporation), 0.2 mL of the acetone solution was uniformly applied. […] The lid is closed tightly, and the number of dead ticks is examined after 2 days.

A word on the mortality: it is the share of the test organisms that died.

Regarding `CCN(Cc1ccc(Cl)nc1)/C(=C/[N+](=O)[O-])NC` [Nitenpyram, nitenpyram], the mortality at 500 mg/m2 is 20%.

These data come from patent US20130137682A1, “PEST CONTROL COMPOSITION” (SUMITOMO CHEMICAL COMPANY, LIMITED, priority 2010, published 2013).
